These results are taken from US6299910A, “Methods for identification, purification, and manufacturing of the active constituent in Salvia-miltiorrhiza (dansheng) and the application of this product in enhancing cardiovascular functions” (Techical Sourcing International, Inc., priority 2000, dated 2001).

Broadly, the inhibition is the percentage by which the read-out fell short of the control.

The subject of assay [1] is Platelet aggregation. The experiment in a line: Effect of Dansheng components on platelet anti-aggregation, in vitro (Table VI). In kind it is cell-based. Also on record: key to Effect (platelet anti-aggregation): -: not effective; +: effective; ++: very effective. The following applies: for platelet anti-aggregation potency, in words: Tables II and VI.
Assay [2] is described as follows: Overall bioactivity in three categories: platelet anti-aggregation, life extension under hypoxia, anti-oxidation. The note with it: anti-oxidation (liver cell protection). On the procedure: (§1) The other seven compounds are evaluated based on: [1] Their anti-oxidant activity, [2] Anti-platelet aggregation, and [3] Endurance under hypoxia conditions.
Assay [3] relates to Red blood cell lysis by H2O2. As to the kind of experiment: Effect of Dansheng components on red blood cell lysis by H2O2 (Table IV). Also on record: key to Effect (red blood cell lysis by H2O2): -: not effective; +: effective; ++: very effective. The following applies: 0.33 mg/ml; for inhibition at 330 µg/mL: Erythrocyte, read-out: Degree of Inhibition (red blood cell lysis by H2O2). In kind it is cell-based. The protocol: These compounds were prepared at 0.33 mg/ml.

For assay [4], the system named is rats. As to the kind of experiment: Effect of Dansheng components on rats under hypoxia condition (Table V). Format: in vivo. Also on record: key to Effect (rats under hypoxia condition): -: not effective; +: effective; ++: very effective. The following applies: 100 mg/kg dose.
In assay [5] the test system is rats. As to the kind of experiment: Life extension / endurance under hypoxia condition (Table III). In kind it is in vivo. The note with it: for extended rats life (up to): hypoxia, dose not given. On the procedure: as §1
Compounds 6 and 8 effectively extended rats life up to 78% Other compounds are comparatively lower in this category (see Tables III and V below).

In assay [6] the test system is Platelet aggregation. As to the kind of experiment: Platelet anti-aggregation effect of Magnesium Salvianolate B and its derivatives, in vitro (Table II). In kind it is cell-based. The following applies: 900 mcg/ml.
The test system of another assay is Liver cell. As to the kind of experiment: Effect on liver cell MDA amount induced by carbon tetrachloride (antioxidant activity, liver cell protection; Table I). In kind it is cell-based. The note with it: 0.5 micro mole/ml. The text has this: Table I: Effect of Dansheng Constituents on Liver Cell MDA (Molonyldialdehyde) Amount Induced by Carbon Tetrachloride

The subject of a further assay is animal. The following applies: Chen et al., 1980; cited from earlier work.

For the compound `O=C(O)C(O)Cc1ccc(O)c(O)c1` (stereo not shown) [Compound 1, Potassium 3' 4-dihydroxyphenyllactate], the inhibition at 180 µg/mL in the assay with Platelet aggregation [1] (Platelet, 180 mcg/ml, in vitro) stood at 0%. Besides, testing at 900 µg/mL in the assay with Platelet aggregation [1] (Platelet, 900 mcg/ml, in vitro) gave an inhibition of 0%. Also, in assay [2], the “bioactivity level, in words” value is recorded as “lowest bio-activity level”. Also, in assay [3], the “Effect (red blood cell lysis by H2O2)” value is on record as “++” and the inhibition at 330 µg/mL was found to be 100%.
On to `O=C(/C=C/c1ccc(O)c(O)c1)O[C@H](Cc1ccc(O)c(O)c1)C(=O)O` [Compound 2, Sodium Rosmarinate], for which, in the assay on rats [4], the “Effect (rats under hypoxia condition)” value is on record as “++” and the “Life Expanded” value is listed as 42%. Moreover, in the assay with Platelet aggregation [1] (Platelet, 180 mcg/ml, in vitro), the inhibition at 180 µg/mL is 0%. The same compound showed an inhibition at 900 µg/mL with Platelet aggregation [1] (Platelet, 900 mcg/ml, in vitro) of 13%. In assay [3], the “Effect (red blood cell lysis by H2O2)” value is on record as “++” and the inhibition at 330 µg/mL is 100%.
As for `O=C(/C=C/c1ccc(O)c2c1C(C(=O)O)C(c1ccc(O)c(O)c1)O2)OC(Cc1ccc(O)c(O)c1)C(=O)O` (stereo not shown) [Compound 3, Dipotassium Lithospermate], in the assay with rats [4], the “Effect (rats under hypoxia condition)” value was “+” and the “Life Expanded” value came out at 23%. In the assay on Platelet aggregation [1] (Platelet, 180 mcg/ml, in vitro), this compound registered an inhibition at 180 µg/mL of 0%. Further, in the assay on Platelet aggregation [1] (Platelet, 900 mcg/ml, in vitro), the inhibition at 900 µg/mL came out at 18%. Further, in assay [3], the “Effect (red blood cell lysis by H2O2)” value was “++” and the inhibition at 330 µg/mL is 100%.
Consider `O=C(/C=C/c1ccc(O)c2c1C(C(=O)O)C(c1ccc(O)c(O)c1)O2)OC(Cc1ccc(O)c(O)c1)C(=O)O` (stereo not shown) [Compound 4, Magnesium Lithospermate], for which, in the assay with rats [4], the “Effect (rats under hypoxia condition)” value is recorded as “+” and the “Life Expanded” value came out at 45%. Further, the “% Inhibition (platelet anti-aggregation)” value in the assay with Platelet aggregation [1] (180 mcg/ml, in vitro) was 0%. The “% Inhibition (platelet anti-aggregation)” value with Platelet aggregation [1] (900 mcg/ml, in vitro) came to 28%. In addition, in assay [3], the “Degree of Inhibition (red blood cell lysis by H2O2)” value (“Degree of Inhibition” for short) came out at 100% and the “Effect (red blood cell lysis by H2O2)” value is “++”.
As to `O=C(/C=C/c1ccc(O)c2c1C(C(=O)OC(Cc1ccc(O)c(O)c1)C(=O)O)C(c1ccc(O)c(O)c1)O2)OC(Cc1ccc(O)c(O)c1)C(=O)O` (stereo not shown) [Compound 5, Dipotassium Salvianolate B], in the assay on Platelet aggregation [1] (900 mcg/ml, in vitro), the “% Inhibition (platelet anti-aggregation)” value came out at 44% and the “Effect (platelet anti-aggregation)” value is “+”. The compound also had an inhibition at 180 µg/mL in the assay with Platelet aggregation [1] (Platelet, 180 mcg/ml, in vitro) of 0%. Also, in assay [3], the “Effect (red blood cell lysis by H2O2)” value was “++” and the inhibition at 330 µg/mL is 100%.
As to `O=C(/C=C/c1ccc(O)c2c1C(C(=O)OC(Cc1ccc(O)c(O)c1)C(=O)O)C(c1ccc(O)c(O)c1)O2)OC(Cc1ccc(O)c(O)c1)C(=O)O` (stereo not shown) [Compound 6, Magnesium Salvianolate B], the “% Life Extension” value in the assay on rats [5] (hypoxia condition, 200 mg/kg dose) was 78%. In addition, the “extended rats life (up to)” value with rats [5] is given as “up to 78%”. Besides, the “Effect (rats under hypoxia condition)” value in the assay with rats [4] was “++”. In the assay with rats [4], the “Life Expanded” value is listed as 65%. In the assay on Platelet aggregation [6], this compound had an inhibition at 900 µg/mL of 94%. Also, the “% Inhibition (platelet anti-aggregation)” value in the assay with Platelet aggregation [1] (180 mcg/ml, in vitro) came out at 0%; in the assay with Platelet aggregation [1] (900 mcg/ml, in vitro), 74%. Also, the “Effect (platelet anti-aggregation)” value in the assay on Platelet aggregation [1] (900 mcg/ml, in vitro) was “+”. The inhibition at 450 µg/mL in the assay on Platelet aggregation [1] (Platelet, 450 mcg/ml, in vitro) worked out at 15%. Moreover, the “platelet anti-aggregation potency, in words” value with Platelet aggregation [1] is given as “highest potency”; in the assay on Platelet aggregation [1] (listed as MSV), “most potent”. Further, the “bioactivity level, in words” value in assay [2] is “highest bioactivity level”; in assay [2] (listed as Magnesium Salvianolate B), “most biologically effective compound”. In addition, in assay [3], the “Degree of Inhibition” value came to 100%. Besides, in assay [3], the “Effect (red blood cell lysis by H2O2)” value was “++”. In addition, in the assay with Liver cell, the “secretion of MDA from liver cell, in words” value is on record as “decreases the secretion of MDA from liver cell”.
For `O=C(O)C(O)Cc1ccc(O)c(O)c1` (stereo not shown) [Danshensu, 3',4 phenyllatic Acid], the “animal endurance capacity under hypoxia conditions, in words” value (shortened to “animal endurance capacity”) with animal is “increase animal endurance capacity under hypoxia conditions”.
Regarding `O=Cc1ccc(O)c(O)c1` [Protocatechualdehydes, Protocatechualdehyde], in the assay on animal, the “animal endurance capacity” value was “increase animal endurance capacity under hypoxia conditions”.
For the compound `O=C(/C=C/c1ccc(O)c(O)c1/C=C/c1ccc(O)c(O)c1)OC(Cc1ccc(O)c(O)c1)C(=O)O` (stereo not shown) [Salvianolic Acid A], in the assay with animal, the “animal endurance capacity” value was “increase animal endurance capacity under hypoxia conditions”.
As for `O=C(/C=C/c1ccc(O)c2c1[C@H](C(=O)O[C@H](Cc1ccc(O)c(O)c1)C(=O)O)[C@@H](c1ccc(O)c(O)c1)O2)O[C@H](Cc1ccc(O)c(O)c1)C(=O)O` [Salvianolic Acid B], the “animal endurance capacity” value in the assay with animal is reported as “increase animal endurance capacity under hypoxia conditions”.
For “Magnesium Isosalvianolate B [Compound 8]”, the “extended rats life (up to)” value in the assay on rats [5] is recorded as “up to 78%”. In addition, in the assay with rats [4], the “Effect (rats under hypoxia condition)” value was “++” and the “Life Expanded” value worked out at 69%. In the assay with Platelet aggregation [1] (180 mcg/ml, in vitro), the “% Inhibition (platelet anti-aggregation)” value turned out to be 0%. For the same compound, the “% Inhibition (platelet anti-aggregation)” value in the assay on Platelet aggregation [1] (900 mcg/ml, in vitro) is recorded as 20%. In assay [3], the “Degree of Inhibition” value is 100% and the “Effect (red blood cell lysis by H2O2)” value is on record as “++”.
